Among the test systems are HL-60; UACC-62; TK-10; KM12; IGROV-1; SW-620; A549; NCI-H23; HCT-15; SK-MEL-5; SNB-19; NCI/ADR-RES; Hs-578T; SF-295; SR; UO-31; HOP-92; U-251; SN12C; HT-29.
What all share (assay): NCI anticancer screen, dose series, 48 h

The text below walks through data of ChEMBL document CHEMBL1201862, “PubChem BioAssay data set” (2004).

Structures are written as SMILES.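 Growth conditions: 96-well plates. Treatment: test compound, 48 hours, 5 concentrations. Analysis: linear interpolation between bracketing concentrations; unreached endpoints set to highest concentration. GI50 marks 50% less growth.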 Active and inactive are the calls of the source. Cut-off read from the data, not from the text of the source: active = GI50 up to about 1.1 µM and inactive = higher. Square brackets hold non-standard residues; d marks the D form. Peptide text beside a SMILES is read from it. 2Nal = N[CH](Cc1ccc2ccccc2c1)C(=O)O

`Cc1cc(C)n(C(=CC(=O)C(Cl)Cl)n2nc(C)cc2C)n1`: the GI50 in the test with HL-60 was 3.32 µM (inactive); in the test on UACC-62, 1.66 µM (inactive); with TK-10, 3.18 µM (inactive); with KM12, 6.49 µM (inactive); in the test with IGROV-1 it was 9.64 µM (inactive); in the test with SW-620 it was 3.88 µM (inactive). Further, the GI50 in the test with A549 was 21.7 µM (inactive); in the test on NCI-H23, 2.62 µM (inactive); in the test with HCT-15, 2.73 µM; in the test with SK-MEL-5 it was 5.98 µM (inactive); in the test with SNB-19 it was 10.7 µM (inactive); with NCI/ADR-RES, 2.65 µM (inactive). In addition, the GI50 with Hs-578T was 5.21 µM (inactive); with SF-295, 10.4 µM (inactive); in the test on SR, 1.61 µM (inactive); with UO-31 it was 4.71 µM (inactive); in the test on HOP-92, 9.31 µM (inactive); in the test with U-251, 5.12 µM (inactive).

Consider `NCCNc1ccc(NCCN)c2c1C(=O)c1c(O)ccc(O)c1C2=O`, for which the GI50 is 0.0407 µM (active) with HL-60; 0.0108 µM (active) in the test on UACC-62; 0.428 µM (active) in the test on TK-10; 0.118 µM (active) with KM12; 0.0873 µM (active) in the test on IGROV-1; 0.0246 µM (active) in the test with SW-620. Moreover, the GI50 is 0.00392 µM (active) in the test on A549; 0.00728 µM (active) in the test with NCI-H23; 0.161 µM in the test with HCT-15; 0.00483 µM (active) in the test on SN12C; 0.129 µM (active) in the test on SK-MEL-5; 0.00944 µM (active) in the test with SNB-19. The GI50 in the test on NCI/ADR-RES is 0.192 µM (active); with Hs-578T, 0.148 µM (active); with SF-295, 0.00445 µM (active); in the test with SR it was < 0.001 µM (active); in the test with UO-31 it was 0.0391 µM (active); with HOP-92, 0.00686 µM (active). The GI50 in the test with HT-29 is 0.0659 µM (active).

With `Nc1nc(Cl)cc(/N=N\c2ccccc2)n1`, the GI50 in the test on HL-60 was 6.38 µM (inactive); in the test on UACC-62, 28.2 µM (inactive); in the test on TK-10, 61.2 µM (inactive); in the test with KM12, 92.5 µM (inactive); in the test with IGROV-1, 16.6 µM (inactive); in the test with SW-620 it was > 100 µM (inactive). In addition, the GI50 in the test on A549 is 48.2 µM (inactive); in the test on NCI-H23, 21 µM (inactive); in the test with HCT-15, 12.5 µM; with SN12C, 43 µM (inactive); in the test on SK-MEL-5, 15.8 µM (inactive); with SNB-19, 45.8 µM (inactive). In addition, the GI50 is 39.8 µM (inactive) with NCI/ADR-RES; 35.9 µM (inactive) in the test on Hs-578T; 30.7 µM (inactive) with SF-295; 9.79 µM (inactive) with SR; 42.1 µM (inactive) in the test with UO-31; 2.33 µM (inactive) with HOP-92. In the test with HT-29, the GI50 is 31.3 µM (inactive).

For `CC1C2CC(C(S(=O)(=O)N3CCOCC3)/C2=N\O)C1(C)C` (stereo not given), the GI50 in the test with HL-60, in the test on UACC-62, in the test with TK-10, with KM12, in the test with IGROV-1 and in the test on SW-620 was > 100 µM (inactive) in each case. The GI50 in the test with A549 was > 100 µM (inactive); in the test on NCI-H23 it was > 100 µM (inactive); in the test on HCT-15, greater than 100 µM; in the test on SN12C it was > 100 µM (inactive); with SK-MEL-5, > 100 µM (inactive); in the test on SNB-19, > 100 µM (inactive). Further, the GI50 in the test with NCI/ADR-RES, with Hs-578T, in the test on SF-295, in the test with SR, with UO-31 and in the test on HOP-92 was > 100 µM (inactive) throughout. In addition, the GI50 in the test on HT-29 is > 100 µM (inactive).

As to `Cc1cc(S(=O)(=O)/N=C(\NN)NCC(=O)NN)c(S)cc1Cl`, the GI50 in the test on HL-60, in the test with UACC-62, in the test with TK-10, in the test on KM12, in the test with IGROV-1 and with SW-620 was > 10 µM (inactive) throughout. The GI50 in the test on A549 was > 10 µM (inactive); in the test with NCI-H23, > 10 µM (inactive); in the test with HCT-15 it was greater than 10 µM; in the test with SN12C it was > 10 µM (inactive); with SK-MEL-5, 8.85 µM (inactive); with SNB-19 it was > 10 µM (inactive). The GI50 in the test on NCI/ADR-RES, in the test on Hs-578T, in the test on SF-295, in the test on SR, in the test with HOP-92 and in the test with HT-29 was > 10 µM (inactive) throughout. The GI50 in the test on U-251 was > 10 µM (inactive).

For `CO/N=C(/C)c1cccc(Nc2nc3ccc(Cl)cc3c3[nH]c4ccccc4c23)c1`, the GI50 in the test on HL-60 is 13.2 µM (inactive); with UACC-62 it was 6.59 µM (inactive); in the test on KM12 it was 3.97 µM (inactive); with IGROV-1, 10.6 µM (inactive); in the test on SW-620 it was 6.08 µM (inactive); with A549 it was 12.8 µM (inactive). Also, the GI50 in the test on NCI-H23 was 11.5 µM (inactive); with HCT-15 it was 9.73 µM; with SN12C, 11 µM (inactive); with SK-MEL-5, 3.2 µM (inactive); with SNB-19, 15 µM (inactive); with NCI/ADR-RES, 14.3 µM (inactive). Also, the GI50 was 16.7 µM (inactive) in the test with Hs-578T; 4.08 µM (inactive) in the test with SF-295; 4.72 µM (inactive) with SR; 9.46 µM (inactive) in the test with UO-31; 3.65 µM (inactive) in the test with HOP-92; 13.6 µM (inactive) in the test on U-251.

On to `CC(=O)OCC1OC(NC(=S)CCSc2nc3ccccc3c(=O)n2-c2ccccc2)C(OC(C)=O)C(OC(C)=O)C1OC(C)=O` (stereo not given), for which the GI50 with HL-60 is 29.2 µM (inactive); in the test with UACC-62 it was 28.4 µM (inactive); in the test with KM12, 36.5 µM (inactive); in the test with IGROV-1, 2.34 µM (inactive); in the test on SW-620 it was 41.2 µM (inactive); with A549, > 100 µM (inactive). Besides, the GI50 in the test on NCI-H23 is 68.1 µM (inactive); in the test with HCT-15, 53.7 µM; with SN12C it was 68.2 µM (inactive); in the test with SK-MEL-5, 45 µM (inactive); with SNB-19 it was 34 µM (inactive); in the test with NCI/ADR-RES, > 100 µM (inactive). For the same molecule, the GI50 with Hs-578T is 24.8 µM (inactive); in the test with SF-295 it was 32.5 µM (inactive); with SR it was 34.1 µM (inactive); in the test on UO-31 it was 42 µM (inactive); with HOP-92, 16.9 µM (inactive); in the test with HT-29, > 100 µM (inactive). In addition, the GI50 in the test on U-251 was 38.1 µM (inactive).

With `COC(=O)[C@@H]1CN(C(=O)c2ccccc2)C(=O)N1`, the GI50 with HL-60, in the test on UACC-62, in the test with TK-10, in the test with KM12, in the test with IGROV-1 and in the test with SW-620 was > 100 µM (inactive) throughout. Moreover, the GI50 in the test on A549, with NCI-H23, in the test with SN12C, with SK-MEL-5, in the test on SNB-19 and in the test on NCI/ADR-RES was > 100 µM (inactive) each time. The GI50 with Hs-578T is > 100 µM (inactive); in the test with SF-295, > 100 µM (inactive); in the test on SR, > 100 µM (inactive); with UO-31, 69.7 µM (inactive); with HOP-92 it was > 100 µM (inactive); with HT-29, > 100 µM (inactive). In addition, the GI50 in the test with U-251 is > 100 µM (inactive).

For the molecule `O=c1c(C(c2cccc(C(c3c(O)oc4ccccc4c3=O)c3c(O)oc4ccccc4c3=O)c2)c2c(O)oc3ccccc3c2=O)c(O)oc2ccccc12`, the GI50 in the test on HL-60 was 21.7 µM (inactive); with UACC-62, 29 µM (inactive); with TK-10, > 100 µM (inactive); in the test with KM12, 30.5 µM (inactive); with IGROV-1, 34 µM (inactive); with SW-620, > 100 µM (inactive). The GI50 is 60.3 µM (inactive) in the test with A549; 22.8 µM (inactive) with NCI-H23; 63.8 µM in the test on HCT-15; 22.1 µM (inactive) in the test with SN12C; 13.2 µM (inactive) in the test on SK-MEL-5; > 100 µM (inactive) in the test with NCI/ADR-RES. Moreover, the GI50 is 25.5 µM (inactive) in the test on Hs-578T; 41.5 µM (inactive) with SF-295; 28.4 µM (inactive) with SR; 27.7 µM (inactive) with HOP-92; 36.9 µM (inactive) with HT-29; 26.3 µM (inactive) in the test with U-251.

For the molecule `O=C1CC(c2ccc(Cl)cc2)Oc2ccccc21` (stereo not given), the GI50 was 10.7 µM (inactive) with HL-60; 20.6 µM (inactive) in the test on UACC-62; 27.4 µM (inactive) in the test with TK-10; 12.9 µM (inactive) in the test on KM12; 14.6 µM (inactive) in the test on IGROV-1; 25.7 µM (inactive) with SW-620. For the same molecule, the GI50 in the test on NCI-H23 is 15.2 µM (inactive); in the test with HCT-15, 17 µM; in the test with SK-MEL-5, 14 µM (inactive); with SNB-19 it was 26.8 µM (inactive); with NCI/ADR-RES, 16.1 µM (inactive); with Hs-578T, 15 µM (inactive). The GI50 is 24.4 µM (inactive) with SF-295; 8.36 µM (inactive) in the test with SR; 18.1 µM (inactive) in the test with UO-31; 24.7 µM (inactive) with HOP-92; 8.71 µM (inactive) in the test with HT-29; 31.8 µM (inactive) in the test on U-251.

`CC(C)C(NC(=O)C(CCCCN)NC(=O)C(Cc1c[nH]c2ccccc12)NC(=O)C(Cc1ccc(O)cc1)NC(=O)C(CS)NC(=O)C(N)Cc1ccc2ccccc2c1)C(=O)NC(CS)C(=O)NC(C(N)=O)C(C)O` (stereo not given) (H-[2Nal]CYWKVCT-NH2; configuration not given here): the GI50 in the test on HL-60, in the test with UACC-62, in the test on KM12, with IGROV-1, with SW-620 and with A549 was > 12.5 µM (inactive) throughout. Further, the GI50 was > 12.5 µM (inactive) with NCI-H23; greater than 12.5 µM with HCT-15; > 12.5 µM (inactive) with SN12C; > 12.5 µM (inactive) with SK-MEL-5; > 100 µM (inactive) in the test on SNB-19; > 12.5 µM (inactive) in the test with NCI/ADR-RES. Besides, the GI50 was > 12.5 µM (inactive) in the test on Hs-578T; > 12.5 µM (inactive) in the test with SF-295; > 12.5 µM (inactive) with SR; > 12.5 µM (inactive) with UO-31; < 0.01 µM (active) in the test on HOP-92; > 12.5 µM (inactive) in the test with HT-29. In the test on U-251, the GI50 is > 12.5 µM (inactive).
